Laboratory results taken from patent EP1594520B1, “USE OF BRADYKININ-B2 RECEPTOR ANTAGONISTS FOR TREATING OSTEOARTHROSIS” (Sanofi-Aventis Deutschland GmbH, priority 2003, dated 2006).

System: SW1353 Zellen
Experiment: MMP-3 release from IL-1 stimulated SW1353 chondrosarcoma cells (MMP3 ELISA of the culture supernatant)
Assay type: cell-based
Experimental: Für die Analyse der krankheitsmodifizierenden Wirkung von HOE140 in einem Knorpelrelevanten Zellkulturmodel wurde die MMP3 Expression in der Chondrosarcom Zellline SW1353 (ATCC: HTB 94) analysiert. Für die Versuche wurden SW1353 Zellen unter Standard Bedingungen (37°C, 5% CO2) in DMEM-Glutamax mit 10% Fötalem Kälberserum (FKS) in Plastikkulturflaschen kultiviert. Nach ab-trypsinieren der Zellen wurden 50.000 Zellen je well einer 96-well Flachboden Platte in Medium ohne FKS ausgesät und mit der Verbindung HOE140 im Inkubator vorinkubiert. […] Nach 24 Stunden Inkubation unter Standardbedingungen wurde der Zellkulturüberstand abgenommen, 5 Minuten zentrifugiert und bei -20 °C bis zur weiteren Analyse eingefroren. Die Analyse der MMP3 Expression in den Zellkulturüberständen erfolgt dann mittels eines kommerziellen MMP3 ELISA Testsystems (Amersham) nach Angaben des Herstellers. Parallel dazu wurde mit den verbleibenden Zellen ein WST-Zytotoxizitätstest durchgeführt. Dazu wurde das kommerzielle Testsystem der Firma Roche verwendet und die Messung nach Angaben des Herstellerprotokolls durchgeführt.
Die nachfolgende Tabelle 1 zeigt die Ergebnisse. Bradykinin erhöht die MMP3 Freisetzung um mehr als 30%. […] Tabelle 1 MMP-3 Freisetzung aus SW-Zellen

Row | Substance | Erhöhung der MMP3 Freisetzung (Bradykinin added to IL1-stimulated SW cells) | MMP-3 Freisetzung MW (OD450nm) (IL1α + Bradykinin (0,1 µM), no antagonist) | Relativwerte bezogen auf Ausgangswert (IL1α + Bradykinin (0,1 µM), no antagonist, IL1α (0,05 ng/ml) alone = 100) | MMP-3 Freisetzung MW (OD450nm) (IL1α + Bradykinin (0,1 µM) + 0,1 µM HOE140) | Relativwerte bezogen auf Ausgangswert (IL1α + Bradykinin (0,1 µM) + 0,1 µM HOE140, IL1α alone = 100) | MMP-3 Freisetzung MW (OD450nm) (IL1α + Bradykinin (0,1 µM) + 0,05 µM HOE140) | MMP-3 Freisetzung MW (OD450nm) (IL1α + Bradykinin (0,1 µM) + 0,5 µM HOE140) | Relativwerte bezogen auf Ausgangswert (IL1α + Bradykinin (0,1 µM) + 0,05 µM HOE140, IL1α alone = 100) | Relativwerte bezogen auf Ausgangswert (IL1α + Bradykinin (0,1 µM) + 0,5 µM HOE140, IL1α alone = 100) | MMP-3 Freisetzung MW (OD450nm) (IL1α + Bradykinin (0,1 µM) + 1 µM HOE140) | Relativwerte bezogen auf Ausgangswert (IL1α + Bradykinin (0,1 µM) + 1 µM HOE140, IL1α alone = 100) | Hemmung der durch Bradykinin erhöhten Freisetzung von MMP 3 (IL1α + Bradykinin (0,1 µM), 0,05 to 1 µM HOE140)
1 | Bradykinin: natürlich vorkommendes Nonapeptid, das einige pharmakologische Effekte aufweist, die zu Entzündungen und Schmerzen führen (RPPGFSPFR; Bradykinin; UniProt P01042 381-389, looked up) [reference compound] | > 30% | 433 OD450nm | 132,0 | – | – | – | – | – | – | – | – | –
2 | D-Arginyl-L-arginyl-L-prolyl-L-prolylglycyl-3-(2-thienyl)-L-alanyl-L-seryl-(3R)-1,2,3,4-tetrahydro-3-isochinolincarbonyl-(2S,3aS,7aS)-octahydro-1H-indol-2-carbonyl-L-arginin [HOE140] | – | – | – | 371 OD450nm | 113,1 | 458 OD450nm | 309 OD450nm | 139,6 | 94,2 | 306 OD450nm | 93,3 | dosis-abhängig gehemmt
